Results taken from patent publication US9096591B2, “Tetracyclic compounds” (Medivation Technologies, Inc., priority 2007, dated 2015).

Key:
[1] = system: adrenergic receptors α1D, α2A, α2B; serotonin receptor 5-HT6; dopamine receptor D2L; assay: Classification of compounds (Type 1-4) from receptor binding and neurite outgrowth
[2] = target: T1, Serotonin (5-Hydroxytryptamine) 5-HT7 (Homo sapiens, UniProt P34969); assay: Serotonin 5-HT7 radioligand binding ([3H]LSD); parameters: Inhibition of ligand binding, Ser. 5-HT7: concentration or dose not given beside the values; conditions: percent inhibition of specific binding
T1 construct: expressed in transfected cells; host or cells: CHO cells
T1 sequence (P34969 whole entry): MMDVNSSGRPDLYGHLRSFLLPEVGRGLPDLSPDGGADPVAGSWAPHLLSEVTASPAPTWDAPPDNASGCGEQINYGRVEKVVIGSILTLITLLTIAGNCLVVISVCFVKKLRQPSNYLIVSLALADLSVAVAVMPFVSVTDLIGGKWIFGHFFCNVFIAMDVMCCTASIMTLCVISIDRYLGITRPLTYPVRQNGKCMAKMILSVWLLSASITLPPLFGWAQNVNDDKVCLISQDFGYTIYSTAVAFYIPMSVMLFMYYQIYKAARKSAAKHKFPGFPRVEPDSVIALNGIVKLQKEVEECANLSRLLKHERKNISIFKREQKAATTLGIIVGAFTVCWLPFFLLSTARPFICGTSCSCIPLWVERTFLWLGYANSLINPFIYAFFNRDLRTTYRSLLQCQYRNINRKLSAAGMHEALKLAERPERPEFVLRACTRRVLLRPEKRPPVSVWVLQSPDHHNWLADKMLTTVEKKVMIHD
Protocol: Lysergic acid diethylamide (LSD) for 2 hours at 25° C. […] Receptor proteins were filtered and washed, the filters were then counted to determine [^3H]LSD specifically bound. […] Biochemical assay results are presented as the percent inhibition of specific binding in Table 6.

[3] = system: rat brain mitochondria; assay: Calcium retention capacity of mitochondria; type: biochemical, Wistar rats; conditions: at concentrations near the IC50
Protocol: Analyses of extramitochondrial Ca^2+ following a bolus dose of Ca^2+ were performed under energized conditions, in a sucrose based buffer (250 mM sucrose, 10 mM HEPES, 1 mM Pi (K), 1 mM MgCl2, 10 μM EGTA, pH 7.2) containing 5 mkM Arsenazo III, 1 μg/ml oligomycin and 20 μM ADP with 5 mM malate and glutamate as respiratory substrates in a cuvette in a Beckman DU 640 spectrophotometer.

[4] = system: rat brain mitochondria; assay: Mitochondrial membrane potential (safranine test); type: biochemical, Wistar rats; conditions: compounds did react with safranine in buffer without mitochondria
How it was run: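 Rat brain mitochondria incubated as for the swelling assay, with 10 mkM safranine in the medium and succinate added before test compounds. Absorbance read at 554 and 524 nm; A554-524 reflects membrane potential, A554 reflects swelling.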

[5] = system: C57BL/6 mice; assay: Recognition of a new location of the known object (spatial memory); type: in vivo; conditions: 10 mg/kg
Source text: The object recognition test is based on the fact that mice and rats spontaneously explore new object or location of a known object a lot longer than the know object or a known location of an object. This test was first used in rats (Ennaceur A., Delacour J., 1988). It was further shown by others that this type of memory testing is suitable for mice (Dodart J. et al. 1997, Messier C. 1997, Pittenger C. et al., 2002, Ryabinin A. et al., 2002, Sargolini F. et al., 2003). The method of recognition of an object is divided in two stages. The first one involves the recognition of a new location of a known object, which is used to assess spatial memory. The second one includes a test for recognition of a new in order to evaluate the non-spatial memory (Gaffan D., 1992, Kolb B. et al., 1994, Steckler T., 1998). Currently, both are widely used to determine the effectiveness of newly synthesized drugs on memory.
All experiments were carried out on 3-4 months old males (C57BL/6 line) 22-26 g weight with 10 animals in each group. All animals were kept in the animal facility (5 animals per cage) on the 12×12 hours light cycle (8 am-8 pm) with free access to food and water. […] Brown glass vials were used as test objects which are 2.7 cm in diameter (1.1 inch) and 5.5 cm high (2.2 inch). All vials were treated with 85% ethanol 2-3 minutes before each testing. Animals were placed in the center of the chamber.
Dimebon and compounds of the invention were dissolved in distilled water and administered orally at 0.05 mL per 10 g of animal mass 1 hour before the training exercise. All animals in the control group were treated with the equivalent dose of vehicle. The testing was performed 48 hours after the training exercise because animals forget the location of the object during the 48-hour resting time.
On the first day animals were brought in the testing room so that they could adapt to the testing environment for 20-30 min. Subsequently, each animal was placed in the empty testing chamber for 10 min, which was wiped with alcohol beforehand. After that animals were transferred back into the […] and returned to the animal facility.
The next day after habituation, the animals were brought back into the testing room where they were weighed and injected with the testing compound. An hour after injection, each animal was placed into the testing camber which had two identical objects that were positioned 14.5 cm (5.7 inches) from the corners on the diagonal. The training exercise lasted for 15 min for each animal. Subsequently, each animal was placed back into the cage and returned into the animal house.
The testing procedure was performed 48 hours after the training exercise. During the procedure two objects were used as in the training exercise. […] The amount of time that each animal spent on exploration each object was determined with 0.1 sec accuracy using two electronic stopwatches for total of 10 min. […] The survey of the object was counted as positive if the nose of an animal was pointed within 2 cm or if the animal was touching the objected directly with the nose.
Due to fair differences in the amount of time that each animal surveyed the object, the percentage of the survey time for each animal was determined using this formula: tNL/(tFL+tNL)×100 (where t is time, NL—new location(object), and FL—familiar location(object)). […] Subsequently, the statistical significance was analyzed using a Student's t-test criteria.

CN1CCc2c(c3cc(Cl)ccc3n2CCc2ccc(C(F)(F)F)nc2)C1 [Compound 250]
compound type (classification by receptor binding profile and neurite outgrowth) [1]: Type one
Inhibition of ligand binding, Ser. 5-HT7 [2]: 93%

CN1CCc2c(c3cc(Cl)ccc3n2CCc2nc(-c3ccccc3)cs2)C1 [Compound C1-8]
calcium-retention capacity of mitochondria [3]: increased the calcium-retention capacity of mitochondria
depolarizing activity in safranine test [4]: depolarizing activity

Cc1ccc2c(c1)c1c(n2CCc2ccc(C)nc2)CCN(C)C1 [Dimebon, dimebon, reference compound]
time to explore the known object in a new location, % of the total time [5]: 61.2±5%
time to explore the object in a known position, % of the total time [5]: 38.8±5%
